# Reference: patent US20060241019A1, “Long lasting insulin derivatives and methods thereof” (priority 2003, published 2006)
# Test system: Epididymal fat cells from Wistar rats
# Test: Glucose uptake in epididymal fat cells
# Format: cell-based
# Conditions: D-[3-3H]Glucose incorporation, rat epididymal fat cells, 2 hour incubation
# Protocol: In addition, glucose uptake in an other source of adipocytes was used to evaluate the in vitro activity. […] The tissue (0.03 g/ml) is degraded by collagenase in modified HEPES solution pH 7.4 at 37° C. Test compound and/or vehicle is incubated with 500 μl aliquots in modified HEPES buffer pH 7.4 and D-[3-3H]Glucose (2.5 μCi/ml) is then added for 2 hour incubation. Test compound-induced the increase of glucose incorporation by more than 50 percent or more (≧50%) relative to the control 2 nM insulin response, indicates possible insulin receptor agonist activity. […] Compounds are screened at 10, 1, 0.1, 0.01 and 0.001 μM.
substance,measurement,value
(Phe B1)-MPA-(AEES)2-Insulin [Example VI],EC50,15.4 nM
